Paper PMC9090415, “Discovery of small molecule inhibitors of Plasmodium falciparum apicoplast DNA polymerase” (Journal of Enzyme Inhibition and Medicinal Chemistry, 2022)

Molecular target: P. falciparum apicoplast DNA polymerase (Pf-apPOL) (Plasmodium falciparum, UniProt Q8ILY1)
Test: Fluorescence-based high-throughput DNA polymerase assay (molecular beacon), primary screen and dose-response
Format: biochemical
Procedure, shortened: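 Single-point screening used 10 µM compound with 20 nM polymerase, 20 nM hairpin substrate and 6 µM dNTPs for 90 min at 25 °C. Confirmatory titrations (2.5–80 µM) followed fluorescence at three times, and IC50 was derived from a fit including a cooperativity term n.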

P. falciparum apicoplast DNA polymerase (Pf-apPOL), sequence (Q8ILY1 entry or part of it): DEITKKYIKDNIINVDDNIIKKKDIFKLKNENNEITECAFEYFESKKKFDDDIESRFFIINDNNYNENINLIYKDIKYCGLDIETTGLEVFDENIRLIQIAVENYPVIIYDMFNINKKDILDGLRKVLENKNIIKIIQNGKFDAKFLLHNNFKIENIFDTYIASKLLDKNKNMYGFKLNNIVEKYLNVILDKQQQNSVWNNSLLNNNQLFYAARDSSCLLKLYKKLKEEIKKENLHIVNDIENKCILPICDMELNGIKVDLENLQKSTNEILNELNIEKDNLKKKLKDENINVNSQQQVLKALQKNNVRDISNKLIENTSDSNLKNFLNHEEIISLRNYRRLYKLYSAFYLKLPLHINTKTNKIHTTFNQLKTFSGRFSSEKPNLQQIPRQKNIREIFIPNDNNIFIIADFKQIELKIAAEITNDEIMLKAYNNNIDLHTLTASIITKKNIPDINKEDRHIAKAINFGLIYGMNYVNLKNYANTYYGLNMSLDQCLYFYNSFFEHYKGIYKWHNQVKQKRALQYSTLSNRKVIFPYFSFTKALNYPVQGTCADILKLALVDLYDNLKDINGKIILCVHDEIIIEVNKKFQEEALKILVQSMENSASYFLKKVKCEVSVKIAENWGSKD

## COC(=O)c1sc(-c2ccc(C(C)(C)C)cc2)cc1NC(=O)CCC(=O)O [Molecule 87, COC(=O)c1sc(cc1NC(=O)CCC(=O)O)c1ccc(cc1)C(C)(C)C]
'DNA Pol' of the 186 hits list (screen value), 90 min, 10 µM
  DNA Pol: 96
DRC-1, conc 2.5
  % inhibition Apo pol 10': 19.7971%
DRC-1, conc 5
  % inhibition Apo pol 10': 30.0237%
DRC-1, conc 10
  % inhibition Apo pol 10': 55.209%
DRC-1, conc 20
  % inhibition Apo pol 10': 85.0828%
DRC-1, conc 40
  % inhibition Apo pol 10': 94.7696%
DRC-1, conc 80
  % inhibition Apo pol 10': 96.2943%
DRC-1, 90', conc 2.5
  % inhibition Apol 90': 13.7781%
DRC-1, 90', conc 5
  % inhibition Apol 90': 20.5036%
DRC-1, 90', conc 10
  % inhibition Apol 90': 48.04%
DRC-1, 90', conc 20
  % inhibition Apol 90': 81.7697%
DRC-1, 90', conc 40
  % inhibition Apol 90': 91.7617%
DRC-1, 90', conc 80
  % inhibition Apol 90': 95.9877%
DRC-1, 180', conc 2.5
  % inhibition apPOL 180': 10.0944%
DRC-1, 180', conc 5
  % inhibition apPOL 180': 11.9548%
DRC-1, 180', conc 10
  % inhibition apPOL 180': 36.7594%
DRC-1, 180', conc 20
  % inhibition apPOL 180': 75.8676%
DRC-1, 180', conc 40
  % inhibition apPOL 180': 89.861%
DRC-1, 180', conc 80
  % inhibition apPOL 180': 95.0797%
DRC-2, 5', conc 2.5
  % inhibition Apo pol 5': 12%
DRC-2, 5', conc 5
  % inhibition Apo pol 5': 9%
DRC-2, 5', conc 10
  % inhibition Apo pol 5': 35%
DRC-2, 5', conc 20
  % inhibition Apo pol 5': 50%
DRC-2, 5', conc 40
  % inhibition Apo pol 5': 60%
DRC-2, 5', conc 80
  % inhibition Apo pol 5': 59%
DRC-2, 5', concentration 5
  % inhibition Apo pol 5': 9%
DRC-2, 40', conc 2.5
  % inhibition Apol 40': 11%
DRC-2, 40', conc 5
  % inhibition Apol 40': 9%
DRC-2, 40', conc 10
  % inhibition Apol 40': 40%
DRC-2, 40', conc 20
  % inhibition Apol 40': 61%
DRC-2, 40', conc 40
  % inhibition Apol 40': 72%
DRC-2, 40', conc 80
  % inhibition Apol 40': 72%
DRC-2, 40', concentration 5
  % inhibition Apol 40': 9%
DRC-2, 40', concentration 40
  % inhibition Apol 40': 72%
DRC-2, 40', concentration 80
  % inhibition Apol 40': 72%
DRC-2, 90', conc 2.5
  % inhibition ApPOL 90': 9%
DRC-2, 90', conc 5
  % inhibition ApPOL 90': 7%
DRC-2, 90', conc 10
  % inhibition ApPOL 90': 38%
DRC-2, 90', conc 20
  % inhibition ApPOL 90': 62%
DRC-2, 90', conc 40
  % inhibition ApPOL 90': 74%
DRC-2, 90', conc 80
  % inhibition ApPOL 90': 75%
DRC-2, 90', concentration 2.5
  % inhibition ApPOL 90': 9%
DRC-2, 180', conc 2.5
  % inhibition apPOL 180': 6%
DRC-2, 180', conc 5
  % inhibition apPOL 180': 4%
DRC-2, 180', conc 10
  % inhibition apPOL 180': 32%
DRC-2, 180', conc 20
  % inhibition apPOL 180': 57%
DRC-2, 180', conc 40
  % inhibition apPOL 180': 72%
DRC-2, 180', conc 80
  % inhibition apPOL 180': 73%
DRC-2, 180', concentration 40
  % inhibition apPOL 180': 72%
Primary screen value, "DNA Pol", 90 min, 10 µM
  DNA Pol: 96

## COc1cc(NC(=O)c2ccccc2)c(OC)cc1NC(=O)Cc1cccs1 [KU0032113]
DRC-1, concentration 2.5
  % inhibition Apo pol 10': 6.129%
DRC-1, concentration 5
  % inhibition Apo pol 10': 17.2801%
DRC-1, concentration 10
  % inhibition Apo pol 10': 38.185%
DRC-1, concentration 20
  % inhibition Apo pol 10': 61.3818%
DRC-1, concentration 40
  % inhibition Apo pol 10': 79.6269%
DRC-1, concentration 80
  % inhibition Apo pol 10': 80.874%
DRC-1, 90', concentration 2.5
  % inhibition Apol 90': 2.9%
DRC-1, 90', concentration 5
  % inhibition Apol 90': 9.442%
DRC-1, 90', concentration 10
  % inhibition Apol 90': 29.583%
DRC-1, 90', concentration 20
  % inhibition Apol 90': 53.4832%
DRC-1, 90', concentration 40
  % inhibition Apol 90': 79.1036%
DRC-1, 90', concentration 80
  % inhibition Apol 90': 83.2869%
DRC-1, 180', concentration 2.5
  % inhibition apPOL 180': 0.5437%
DRC-1, 180', concentration 5
  % inhibition apPOL 180': 4.503%
DRC-1, 180', concentration 10
  % inhibition apPOL 180': 19.4766%
DRC-1, 180', concentration 20
  % inhibition apPOL 180': 39.9313%
DRC-1, 180', concentration 40
  % inhibition apPOL 180': 73.4883%
DRC-1, 180', concentration 80
  % inhibition apPOL 180': 81.431%
DRC-2, 5', concentration 2.5 (unit not given)
  % inhibition Apo pol 5': 25%
DRC-2, 5', concentration 10 (unit not given)
  % inhibition Apo pol 5': 38%
DRC-2, 5', concentration 20 (unit not given)
  % inhibition Apo pol 5': 38%
DRC-2, 5', concentration 40 (unit not given)
  % inhibition Apo pol 5': 34%
DRC-2, 40', concentration 2.5 (unit not given)
  % inhibition Apol 40': 34%
DRC-2, 40', concentration 10 (unit not given)
  % inhibition Apol 40': 54%
DRC-2, 40', concentration 40 (unit not given)
  % inhibition Apol 40': 61%
DRC-2, 90', concentration 5 (unit not given)
  % inhibition ApPOL 90': 25%
DRC-2, 90', concentration 10 (unit not given)
  % inhibition ApPOL 90': 54%
DRC-2, 180', concentration 20 (unit not given)
  % inhibition apPOL 180': 61%
DRC-2, 5', concentration 2.5
  % inhibition Apo pol 5': 25%
DRC-2, 5', concentration 5
  % inhibition Apo pol 5': 21%
DRC-2, 5', concentration 10
  % inhibition Apo pol 5': 38%
DRC-2, 5', concentration 20
  % inhibition Apo pol 5': 38%
DRC-2, 5', concentration 40
  % inhibition Apo pol 5': 34%
DRC-2, 5', concentration 80
  % inhibition Apo pol 5': -20%
DRC-2, 40', concentration 2.5
  % inhibition Apol 40': 34%
DRC-2, 40', concentration 5
  % inhibition Apol 40': 28%
DRC-2, 40', concentration 10
  % inhibition Apol 40': 54%
DRC-2, 40', concentration 20
  % inhibition Apol 40': 62%
DRC-2, 40', concentration 40
  % inhibition Apol 40': 61%
DRC-2, 40', concentration 80
  % inhibition Apol 40': 35%
DRC-2, 90', concentration 2.5
  % inhibition ApPOL 90': 31%
DRC-2, 90', concentration 5
  % inhibition ApPOL 90': 25%
DRC-2, 90', concentration 10
  % inhibition ApPOL 90': 54%
DRC-2, 90', concentration 20
  % inhibition ApPOL 90': 64%
DRC-2, 90', concentration 40
  % inhibition ApPOL 90': 66%
DRC-2, 90', concentration 80
  % inhibition ApPOL 90': 47%
DRC-2, 180', concentration 2.5
  % inhibition apPOL 180': 22%
DRC-2, 180', concentration 5
  % inhibition apPOL 180': 13%
DRC-2, 180', concentration 10
  % inhibition apPOL 180': 44%
DRC-2, 180', concentration 20
  % inhibition apPOL 180': 61%
DRC-2, 180', concentration 40
  % inhibition apPOL 180': 67%
DRC-2, 180', concentration 80
  % inhibition apPOL 180': 59%
Primary screen value of the 186 hits, unit not given
  DNA Pol: 42
Primary screen value, head "DNA Pol", unit not given
  DNA Pol: 42
